Measured values from ChEMBL document CHEMBL4257591 (J Med Chem, 2018).
In brackets after ≈: the same amount, converted by molar mass. Activity calls are given as the source filed them. The rule behind the calls is not given here. Starred links: 1 amine or outer side, 2 acyl side, 3 side chain; linkers in the order of their positions; H or OH if unused. Positions of bridges follow the written chain, without caps; N, C: chain ends. Non-standard residues stand in square brackets, D forms with d. Residues, ends and D or L forms follow the SMILES beside them. *: point of attachment. X1 = NC(=O)C[C@@H](C(=O)[*:2])N(c1ccc2c(c1)C(=O)OC21c2ccc(O)cc2Oc2cc(O)ccc21)[*:1]; FITC = O=C1OC2(c3ccc(O)cc3Oc3cc(O)ccc32)c2ccc(NC(=S)*)cc21; Ahx = NCCCCCC(=O)O

Experiments:
[1] = tested on: Staphylococcus aureus; experiment: Antimicrobial activity against Staphylococcus aureus KCTC 1621 after 18 hrs; assay type: functional; conditions: KCTC 1621, 18 h
[2] = tested on: Pseudomonas aeruginosa; experiment: Antimicrobial activity against multidrug-resistant Pseudomonas aeruginosa CCARM 2095 after 18 hrs; assay type: functional; conditions: CCARM 2095, 18 h
[3] = tested on: Staphylococcus aureus; experiment: Antimicrobial activity against methicillin-resistant Staphylococcus aureus CCARM 3089 after 18 hrs; assay type: functional; conditions: CCARM 3089, 18 h
[4] = tested on: Staphylococcus aureus; experiment: Induction of membrane permeabilization in Staphylococcus aureus KCTC 1621 at 2 to 8 times MIC concentration up to 300 secs by SYTOX green uptake assay; assay type: functional, organism-based
[5] = tested on: Bacillus subtilis; experiment: Antimicrobial activity against Bacillus subtilis KCTC 3068 after 18 hrs; assay type: functional; conditions: KCTC 3068, 18 h
[6] = tested on: Staphylococcus epidermidis; experiment: Antimicrobial activity against Staphylococcus epidermidis KCTC 1617 after 18 hrs; assay type: functional; conditions: KCTC 1617, 18 h
[7] = tested on: Staphylococcus aureus; experiment: Induction of cytoplasmic membrane depolarization in Staphylococcus aureus KCTC 1621 at 2 to 8 times MIC concentration by DiSC3(5)-dye based fluorescence spectrophotometry; assay type: functional, organism-based
[8] = tested on: Escherichia coli; experiment: Bactericidal activity against Escherichia coli KCTC 1682 at MIC concentration after 120 to 180 mins by time kill assay; assay type: functional, organism-based
[9] = tested on: Escherichia coli; experiment: Induction of membrane permeabilization in Escherichia coli KCTC 1682 assessed as PI-positive cells at 12.5 uM after 1 to 2 hrs by propidium iodide-staining based flow cytometry (reference value: 2.36%); assay type: functional
[10] = tested on: Salmonella typhimurium; experiment: Antimicrobial activity against Salmonella typhimurium KCTC 1926 after 18 hrs; assay type: functional, Salmonella enterica subsp. enterica serovar Typhimurium; conditions: Salmonella enterica, KCTC 1926, 18 h
[11] = tested on: Staphylococcus aureus; experiment: Bactericidal activity against Staphylococcus aureus KCTC 1621 at MIC concentration after 30 mins by time kill assay; assay type: functional, organism-based
[12] = tested on: Enterococcus faecium; experiment: Antimicrobial activity against vancomycin-resistant Enterococcus faecium ATCC 51559 after 18 hrs; assay type: functional; conditions: ATCC 51559, 18 h
[13] = tested on: Pseudomonas aeruginosa; experiment: Antimicrobial activity against Pseudomonas aeruginosa KCTC 1637 after 18 hrs; assay type: functional; conditions: KCTC 1637, 18 h
[14] = tested on: Staphylococcus aureus; experiment: Antimicrobial activity against methicillin-resistant Staphylococcus aureus CCARM 3090 after 18 hrs; assay type: functional; conditions: CCARM 3090, 18 h
[15] = Hemolytic activity in sheep RBC assessed as free hemoglobin level up to 256 uM by ELISA relative to control; assay type: ADME, cell-based, Ovis aries, Erythrocyte; conditions: sheep red blood cells (erythrocytes), read-out: Activity
[16] = tested on: RAW264.7; experiment: Cytotoxicity against mouse RAW264.7 cells at 512 uM after 48 hrs by MTT assay; assay type: cell-based; conditions: raw264.7, 48 h
[17] = tested on: Staphylococcus aureus; experiment: Antimicrobial activity against methicillin-resistant Staphylococcus aureus CCARM 3095 after 18 hrs; assay type: functional; conditions: CCARM 3095, 18 h
[18] = tested on: Escherichia coli; experiment: Antimicrobial activity against Escherichia coli KCTC 1682 after 18 hrs; assay type: functional; conditions: KCTC 1682, 18 h
[19] = tested on: DNA; experiment: Binding affinity to Escherichia coli pBR322 DNA assessed as inhibition of DNA migration at 16 uM after 1 hr by agarose gel electrophoresis and UV spectroscopy; assay type: nucleic-acid assay
[20] = tested on: Staphylococcus aureus; experiment: Antimicrobial activity against Staphylococcus aureus KCTC 1621 after 18 hrs using FITC-labelled compound; assay type: functional
[21] = Drug uptake in Staphylococcus aureus KCTC 1621 cytoplasm at 30 uM after 20 mins using FITC-labeled compound by confocal laser-scanning microscopy; assay type: ADME
[22] = tested on: Staphylococcus aureus; experiment: Drug penetration in Staphylococcus aureus KCTC 1621 at MIC concentration after 20 mins using FITC-labelled compounds by confocal laser-scanning microscopy; assay type: ADME, organism-based; conditions: in vivo
[23] = Drug uptake in Escherichia coli KCTC 1682 cytoplasm at 30 uM after 20 mins using FITC-labeled compound by confocal laser-scanning microscopy; assay type: ADME
[24] = tested on: Escherichia coli; experiment: Drug penetration in Escherichia coli KCTC 1682 at MIC concentration after 20 mins using FITC-labelled compounds by confocal laser-scanning microscopy; assay type: ADME, organism-based; conditions: in vivo
[25] = tested on: Escherichia coli; experiment: Antimicrobial activity against Escherichia coli KCTC 1682 after 18 hrs using FITC-labelled compound; assay type: functional
[26] = tested on: Escherichia coli; experiment: Induction of membrane permeabilization in Escherichia coli KCTC 1682 assessed as PI-positive cells at 16 uM after 1 to 2 hrs by propidium iodide-staining based flow cytometry (reference value: 2.36%); assay type: functional

CC[C@H](C)[C@H](NC(=O)[C@@H](NC(=O)[C@H](Cc1cnc[nH]1)NC(=O)[C@H](CCCNC(=N)N)NC(=O)[C@H](C)NC(=O)[C@H](CCCNC(=N)N)NC(=O)[C@H](CC(C)C)NC(=O)[C@H](CO)NC(=O)[C@H](C)NC(=O)[C@H](CO)NC(=O)[C@H](CC(C)C)NC(=O)[C@@H](N)CC(N)=O)[C@@H](C)O)C(=O)N1CCC[C@H]1C(=O)N[C@@H](CCC(N)=O)C(=O)N[C@@H](CO)C(=O)N[C@@H](CCCNC(=N)N)C(=O)N[C@@H](CCCCN)C(=O)N[C@@H](Cc1ccccc1)C(=O)NCC(=O)N[C@@H](CCCNC(=N)N)C(=O)N[C@@H](CCCNC(=N)N)C(N)=O (H-NLSASLRARHTIPQSRKFGRR-NH2)
MIC [1]: 12.5 µM (≈ 30.6 µg/mL) | MIC [2]: 12.5 µM (≈ 30.6 µg/mL) | MIC [3]: 25 µM (≈ 61.3 µg/mL) | Activity [4]: inactive | MIC [5]: 12.5 µM (≈ 30.6 µg/mL) | MIC [6]: 6.3 µM (≈ 15.4 µg/mL) | Activity [7]: inactive | Activity [8]: Active | Activity [9]: 3.66% | MIC [10]: 6.3 µM (≈ 15.4 µg/mL) | Activity [11]: Active | MIC [12]: 50 µM (≈ 123 µg/mL) | MIC [13]: 6.3 µM (≈ 15.4 µg/mL) | MIC [14]: 50 µM (≈ 123 µg/mL) | hemolysis [15]: < 1% | Activity [16]: Non-Toxic | MIC [17]: 25 µM (≈ 61.3 µg/mL) | MIC [18]: 6.3 µM (≈ 15.4 µg/mL) | Activity [19]: Active

CC[C@H](C)[C@H](NC(=O)[C@@H](NC(=O)[C@H](Cc1cnc[nH]1)NC(=O)[C@H](CCCNC(=N)N)NC(=O)[C@H](C)NC(=O)[C@H](CCCNC(=N)N)NC(=O)[C@H](CC(C)C)NC(=O)[C@H](CO)NC(=O)[C@H](C)NC(=O)[C@H](CO)NC(=O)[C@H](CC(C)C)NC(=O)[C@H](CC(N)=O)Nc1ccc2c(c1)C(=O)OC21c2ccc(O)cc2Oc2cc(O)ccc21)[C@@H](C)O)C(=O)N1CCC[C@H]1C(=O)N[C@@H](CCC(N)=O)C(=O)N[C@@H](CO)C(=O)N[C@@H](CCCNC(=N)N)C(=O)N[C@@H](CCCCN)C(=O)N[C@@H](Cc1ccccc1)C(=O)NCC(=O)N[C@@H](CCCNC(=N)N)C(=O)N[C@@H](CCCNC(=N)N)C(N)=O (H-[X1]LSASLRARHTIPQSRKFGRR-NH2)
Activity [20]: Active | Drug uptake [21]: Active | Drug uptake [22]: Active | Drug uptake [23]: Active | Drug uptake [24]: Active | Activity [25]: Active

CC[C@H](C)[C@@H]1NC(=O)[C@H]([C@@H](C)O)NC(=O)[C@H](Cc2cnc[nH]2)NC(=O)[C@H](CCCNC(=N)N)NC(=O)[C@H](C)NC(=O)[C@H](CCCNC(=N)N)NC(=O)[C@H](CC(C)C)NC(=O)[C@H](CO)NC(=O)[C@H](C)NC(=O)[C@@H](NC(=O)[C@H](CC(C)C)NC(=O)[C@H](CC(N)=O)NC(=O)CCCCCNC(=S)Nc2ccc3c(c2)C(=O)OC32c3ccc(O)cc3Oc3cc(O)ccc32)CSSC[C@@H](C(=O)N[C@@H](CCCNC(=N)N)C(=O)N[C@@H](CCCCN)C(=O)N[C@@H](Cc2ccccc2)C(=O)NCC(=O)N[C@@H](CCCNC(=N)N)C(=O)N[C@@H](CCCNC(=N)N)C(N)=O)NC(=O)[C@H](CCC(N)=O)NC(=O)[C@@H]2CCCN2C1=O ({FITC-Ahx}-NLCASLRARHTIPQCRKFGRR-NH2; disulfide 3-15)
MIC ([20]; KCTC 1621, 18 h): 12.5 µM (≈ 37.3 µg/mL) | Drug uptake [21]: Active | Drug uptake [23]: Active | MIC ([25]; KCTC 1682, 18 h): 12.5 µM (≈ 37.3 µg/mL)

CC[C@H](C)[C@H](NC(=O)[C@H](CCCCN)NC(=O)[C@H](CCC(=O)O)NC(=O)[C@H](CCCCN)NC(=O)[C@H](CO)NC(=O)[C@H](CCCCN)NC(=O)[C@H](CCCNC(=N)N)NC(=O)[C@H](Cc1ccccc1)NC(=O)[C@H](Cc1ccccc1)NC(=O)[C@H](CC(=O)O)NC(=O)CNC(=O)[C@H](CC(C)C)NC(=O)[C@@H](N)CC(C)C)C(=O)NCC(=O)N[C@@H](CCCCN)C(=O)N[C@@H](CCC(=O)O)C(=O)N[C@@H](Cc1ccccc1)C(=O)N[C@@H](CCCCN)C(=O)N[C@@H](CCCNC(=N)N)C(=O)N[C@H](C(=O)N[C@H](C(=O)N[C@@H](CCC(N)=O)C(=O)N[C@@H](CCCNC(=N)N)C(=O)N[C@H](C(=O)N[C@@H](CCCCN)C(=O)N[C@@H](CC(=O)O)C(=O)N[C@@H](Cc1ccccc1)C(=O)N[C@@H](CC(C)C)C(=O)N[C@@H](CCCNC(=N)N)C(=O)N[C@@H](CC(N)=O)C(=O)N[C@@H](CC(C)C)C(=O)N[C@H](C(=O)N1CCC[C@H]1C(=O)N[C@@H](CCCNC(=N)N)C(=O)N[C@H](C(=O)N[C@@H](CCC(=O)O)C(=O)N[C@@H](CO)C(=O)O)[C@@H](C)O)C(C)C)[C@@H](C)CC)C(C)C)[C@@H](C)CC [CATHELICIDIN]
Activity [26]: 75.38%
